This is an account of results in US20260274828A1, “BROAD SPECTRUM ANTIFUNGAL KETO-ALKYL-PYRIDINIUM COMPOUNDS” (priority 2023, published 2026).

One may read the MIC as the lowest concentration found to suppress growth.

Read-outs that look alike come from different tables or passages of the source.

For series [1], the system named is A. terreus. In words: Planktonic MIC, CLSI guidelines. It counts as cell-based. The following applies: Aspergillus terreus; strain CFF S023.
The test system of series [2] is C. albicans. In words: Planktonic MIC, CLSI guidelines. It counts as cell-based, Candida albicans. How it is done: (§1) Minimum inhibitory concentrations were determined using CLSI guidelines (Beattie & Krysan, 2021; Wiederhold, 2021). All yeasts were cultured overnight in 3 mL YPD at 30° C., then washed twice in sterile PBS. Two-fold serial dilutions of each compound were prepared in RMPI+MOPS pH 7 (Gibco RPMI 1640 with L-glutamine [11875-093] and 0.165M 352 MOPS), then 1×10^3 cells were added per well. Plates were incubated at 37° C. for 24 hours (C. albicans and S. cerevisiae) or 72 hours (C. neoformans). For A. fumigatus and F. oxysporum wells were inoculated with 1.25×10^4 conidia. Plates were incubated at 37° C. for 48 hours for A. fumigatus and 72 hours for F. oxysporum. All MICs are defined as the well with complete growth inhibition as determined by visual inspection with the exception of MICs of fluconazole against C. albicans where the MIC is defined as at least 50% reduction in growth compared to the control.

For series [3], the system named is C. auris. In words: Planktonic MIC, CLSI guidelines. It counts as cell-based, Candida auris. The following applies: Candidozyma auris. Here is the method: as §1
Series [4] relates to C. albicans. In words: Checkerboard assay with clinical antifungals (FICI). It counts as cell-based, Candida albicans. Particulars: with fluconazole. Here is the method: To determine if compounds interacted with clinically used antifungal drugs, checkerboard assays were performed and fractional inhibitory concentration indices were determined. […] The FICI for compound B and fluconazole is 8.25 due to the 8-fold increase in fluconazole concentration in the combination; however, the concentration of compound B at FIC is reduced by 4-fold relative to compound B as a single agent (Table 3).

Series [5] concerns HepG2 cells. As to the kind of experiment: Mammalian cell culture toxicity assay (LDH release and XTT). It counts as cell-based, human. How it is done:
HepG2 cells (ATCC, #) were maintained and cultured in HepG2 media (DMEM (Gibco, Cat #11965-092) with 5% FBS, 20 mM Glutamine, and Penicillin/Streptomycin) at 37° C. with 5% CO2. Cells were seeded in 96-well plates at a density of 1.25×10^4 cells/well and incubated overnight at 37° C. with 5% CO2, then media was removed and replaced with media containing a two-fold dilution series of compounds with equal DMSO concentrations across all wells including no compound controls. Cells were incubated for an additional 24 hours. Supernatant was removed and used to quantify lactate dehydrogenase release using the CyQuant LDH assay kit (Invitrogen, Cat #C20300) following the manufacturer's directions. LDH signal was normalized to a max lysis control. The remaining cells were then used to quantify cellular metabolism by XTT. Briefly, cells were washed, then 0.9 mg/mL XTT (Sigma, CAT #X4626)+320 μg/mL PMS ([…] methosulfate; Sigma, Cat #P9625) in HepG2 media was added to each well. Plates were incubated at 37° C., with 5% CO2 for 2 hours, then absorbance was measured at 490 nm.
(In general: LDH in the medium is a marker of cell lysis.)

Series [6] relates to C. albicans SC5314. In words: Rat model of Candida albicans vascular catheter infection. It counts as in vivo. Here is the method:
C. albicans biofilm growth during infection of implanted medical devices was measured using an external jugular-vein, rat-catheter infection model (Nett et al., 2012). Briefly, a 1×10^6 cells/ml inoculum for each strain or strain combination was allowed to grow on an internal jugular catheter placed in a pathogen-free female rat (16-week old, 400 g) for 24 hours. After this period, the catheter volumes were removed and the catheters were flushed with 0.9% NaCl. The biofilms were dislodged by sonication and vortexing. Viable cell counts were determined by dilution plating. Three replicates were performed for each strain.
After a 24 hours biofilm formation phase, the devices were removed, sectioned to expose the intraluminal surface, and processed for SEM imaging. Briefly, one milliliter fixative (4% formaldehyde and 1% glutaraldehyde in PBS) was added to each catheter tube and tubes were fixed at 4° C. overnight. Catheters were then washed with PBS prior to incubation in 1% OsO4 for 30 minutes. Samples were then serially dehydrated in ethanol (30-100%). Critical point drying was used to completely dehydrate the samples prior to palladium-gold coating. Samples were imaged on a SEM LEO 1530, with Adobe Photoshop 2022 (v. 23.2.2) used for image compilation.
One potential approach to managing central venous catheter infections is to treat the lumen of the catheter with an anti-infective solution that is locked within the catheter and not introduced into the patient (Chandra et al., 2018). This strategy is most often applied to catheters infected with bacteria but has been proposed for fungal infections as well (Pappas et al., 2016; Mermel et al., 2009). To test the efficacy of KAPs in this setting, a rat model of C. albicans venous catheter infection was employed (Nett et al., 2023). The catheter was infected with C. albicans SC5314 and, on post-infection day 1, treated with A (8 μg/mL solution within catheter) or vehicle. After 24 hours, the catheter was removed and processed for fungal burden and scanning electron microscopy. […]

Series [7] concerns C. auris 0381 biofilms. In words: Biofilm phase antifungal activity assay (XTT reduction). It counts as cell-based, Candida auris. How it is done:
These assays were performed as previously described (Mao et al., 2020; Ramage et al., 2001). C. albicans and C. auris, overnight cultures were washed in sterile PBS and adjusted to 1×10^6 CFU/mL in RPMI+MOPS pH 7. 100 μL cells were added to each well and incubated at 37° C. for 24 hours. A two-fold dilution series of the compounds was prepared in RPMI+MOPS with equal vehicle concentrations. Media was removed and biofilms were gently washed with PBS, then 200 μL of each drug dilution was added to wells and plates were incubated at 37° C. for an additional 24 hours. Media was removed and biofilms were gently washed with PBS, then 100 μL of XTT solution (0.83 mg/mL XTT sodium salt [Sigma, Cat #X4626]+32 μg/mL PMS [Sigma, Cat #P9625] in PBS) was added to each well. Plates were incubated at 37° C. for 30 minutes, then the absorbance was measured at 490 nm.
The metabolic activity of the biofilms was then assayed using the standard XXT reduction assay (Ramage et al., 2001). […] The biofilm activity of compound A was reduced by 4-fold relative to planktonic growth (MIC 4 μg/mL, Table 2).
On the technique in general: Tetrazolium dyes change colour on reduction, which living cells bring about.

Series [8] concerns C. albicans. In words: Planktonic MIC, CLSI guidelines. It counts as cell-based, Candida albicans. The following applies: data not shown.
[9] abbreviates: 8 μg/mL solution within catheter, 24 hours.

`Nc1cc[n+](CC(=O)c2ccc3c(c2)OC(c2ccccc2)(c2ccccc2)O3)cc1.[Cl-]` [Compound A]: the MIC in series [1] was 2 to 4 µg/mL; in series [2] (Candida albicans, strain SC5314, read-out: MIC), 4 µg/mL; in series [2] (Candida albicans, strain TWO #15, fluconazole-resistant, read-out: MIC) it was 4 µg/mL; in series [2] (strain TWO #17, fluconazole-resistant), 4 µg/mL; in series [3] (strain 0381, drug susceptible), 8 µg/mL; in series [3] (strain 0390, multi-drug resistant), 2 µg/mL. For the same molecule, in series [4], the “interaction with clinical antifungal” value is “antagonistic”. In addition, the “LD50, cell lysis assay” value in series [5] (HepG2, LDH release, 24 h) is 9 µg/mL. For the same molecule, the “LD50, metabolic activity assay” value in series [5] (HepG2, XTT, 24 h) came to 20 µg/mL. In addition, the “LD50, toxicity against human cell lines” value in series [5] (readout not given) turned out to be 9 µg/mL. For the same molecule, the “extent of remaining biofilm (scanning electron microscopy)” value in series [6] (setting [9]) is recorded as “dramatic reduction”. Moreover, the “reduction in fungal burden relative to vehicle-treated catheters” value in series [6] (setting [9]) is listed as over 1 log10. In series [6] (8 μg/mL, 24 hr), the “fungal burden of the catheter” value was “significantly reduced”. In series [7], the “activity during planktonic and inanimate-substrate biofilm growth” value is “comparable activity”. Besides, the “change in MIC with glycerol instead of glucose as carbon source” value in series [8] was “not observed”.
